Non-standard residues stand in square brackets, D forms with d. *: point of attachment. Ida = 2,2'-azanediyldiacetic acid, O=C(O)CNCC(=O)*; Ida(NHPal) = Ida cap bearing a palmityl amide; Dip = N[C@H](C(=O)O)C(c1ccccc1)c1ccccc1; β3hP = O=C(O)C[C@@H]1CCCN1; Ahx = NCCCCCC(=O)O
Experiments:
[1] = tested on: mouse; test: Activity at 20 nmoles/mouse: serum iron 4 hours after injection versus solvent (Tables 3 and 4); format: in vivo; set-up: key: Y: “Active” means that the injection of the compound resulted in statistically significant (p < 0.05) lowering of serum iron compared to solvent injection when measured 4 hours after administration; Y*: detectable and reproducible activity but at least 50% lower than other active compounds in Table 4; conditions: Table 4; intraperitoneal; serum iron 4 h after administration
[2] = tested on: Hamp1-/- mice; test: Treatment study: 2 weeks daily PR65 in iron-overloaded hepcidin knockout mice; format: in vivo, mouse; conditions: 50 nmoles daily s.c., 14 days
Procedure: To test the effect of PR65 on iron-loaded Hamp1^−/− mice (“treatment” studies), male mice were kept on the standard diet for their entire lifespan. Beginning at 12-14 weeks of age, 50 nmoles of PR65 or solvent was injected daily by the subcutaneous route for 2 weeks.
To assess the potential of mini-hepcidins as a standalone treatment for iron overload in subjects, 12 week old iron-overloaded hepcidin knockout mice were injected with 50 nmoles of PR65 daily for 14 days. […] In contrast to mice that were iron-depleted before PR65 administration, in mice with established iron overload serum iron levels were not decreased 24 hours after the last dose compared to solvent-treated mice (p=0.682) (FIG. 15B). […] The less than 24 hours duration of the hypoferremic effect of each 50 nmoles dose may have been due to the severe iron overload of the hepcidin knockout mice at this age. Accumulated hepatocyte iron could stimulate ferroportin synthesis and iron efflux from hepatocytes into plasma by relieving the inhibition of ferroportin translation by iron-regulatory proteins (IRPs) interacting with 5′ iron-regulatory element (5′ IRE) in the ferroportin mRNA, and possibly by other mechanisms.

[3] = tested on: Hamp1-/- mice; test: Prevention study: 2 weeks daily PR65 in iron-depleted hepcidin knockout mice on iron-loading diet
Procedure: PR65 was administered subcutaneously in 100 μl of SL220 solubilizer. Short-term studies were carried out for up to 48 hours to establish the effectiveness of a single injection. Long-term studies (“prevention” and “treatment”) were carried out for 2 weeks using daily injections and iron and hematological parameters measured 24 hours after the last injection.
To test the ability of PR65 to prevent, inhibit, or reduce iron loading (“prevention” studies), male Hamp1^−/− mice were iron-depleted by placing them on a low-iron diet (4 ppm iron) for 2 months starting at the age of 5-6 weeks. […] A group of mice was analyzed immediately after iron depletion (baseline group), and the remaining animals were switched to an iron-loading diet (standard chow, about 300 ppm Fe) and received daily subcutaneous injection of solvent or PR65 (20, 50 or 100 nmoles) for 2 weeks. All mouse diets were obtained from Harlan-Teklad (Madison, Wis.).
Serum iron and non-heme iron concentrations were determined as previously described (Ramos E, et al. (2011) Hepatology 53(4):1333-1341), using acid treatment followed by a colorimetric assay for iron quantitation (Genzyme, Cambridge, Mass.). […] Complete blood counts were obtained with a HemaVet blood analyzer (Drew Scientific, Oxford, Conn.).
After iron depletion, a group of mice was analyzed to establish the baseline iron and hematological parameters and the rest of the mice were placed on an iron-loading diet (300 ppm Fe) for 2 weeks while simultaneously receiving daily subcutaneous injections of solven only (control) or PR65 (20, 50 or 100 nmoles) in solvent. […] Hemoglobin concentrations were monitored to detect potential iron-restrictive effects of hepcidin excess on erythropoiesis.

[4] = tested on: mouse; test: Activity at 20 nmoles/mouse: serum iron 4 hours after injection versus solvent (Tables 3 and 4); format: in vivo; set-up: key: Y: “Active” means that at 4 hours after injection serum iron in peptide-injected mice decreased statistically significantly (p < 0.05) compared to solvent-injected mice; Y*: Exhibits detectable and reproducible activity at about 50% lower than the most active compounds in Table 3 and 4; conditions: Table 3; subcutaneous
[5] = tested on: mouse; test: as above; format: in vivo; set-up: key: Y: “Active” means that at 4 hours after injection serum iron in peptide-injected mice decreased statistically significantly (p < 0.05) compared to solvent-injected mice; Y*: Exhibits detectable and reproducible activity at about 50% lower than the most active compounds in Table 3 and 4; conditions: Table 3, intraperitoneal

**Q.** Which “Active @ 20 nmoles/mouse IP” value [1] does the source give for “PR82: SEQ ID NO: 101; Ida-T-H-Dpa-bhPro-R-C-R-W-Ahx-Ida(NHPal) (Ida-TH[Dip][β3hP]RCRW-{Ahx-Ida(NHPal)})” here?
**A.** Its value is “Y”.

**Q.** With `CCCCCCCCCCCCCCCC(=O)NCCCOCCOCCOCCCNC(=O)C[C@H](Cc1ccccc1)NC(=O)[C@H](CCCNC(=N)N)NC(=O)[C@H](CS)NC(=O)[C@H](CCCNC(=N)N)NC(=O)C[C@@H]1CCCN1C(=O)[C@@H](NC(=O)[C@H](Cc1c[nH]cn1)NC(=O)[C@@H](NC(=O)CNCC(=O)O)[C@@H](C)O)C(c1ccccc1)c1ccccc1` [PR65] as the compound, how does the decrease in hemoglobin [2] read?
**A.** Its decrease in hemoglobin is 2 g/dL.

**Q.** And the hemoglobin levels ([3]; 20 nmoles per day s.c., 2 weeks)?
**A.** Its hemoglobin levels is “did not change significantly”.

**Q.** And the “reduction of hemoglobin concentration” value ([3]; 50 nmoles per day s.c., 2 weeks)?
**A.** Its value is 3 g/dL.

**Q.** And the anemia ([3]; 100 nmoles daily, 2 weeks)?
**A.** Its anemia is “moderately anemic”.

**Q.** What about the “reduction of hemoglobin concentration” value ([3]; 100 nmoles per day s.c., 2 weeks) of the same compound?
**A.** Its value is 5 g/dL.

**Q.** What about the maximal tolerated dose ([3]; daily s.c. dosing) of the same compound?
**A.** The maximal tolerated dose was 50 nmol.

**Q.** Which “Active @ 20 nmoles/mouse by SQ” value [4] does the source give for `CCCCCCCCCCCCCCCC(=O)NCCCOCCOCCOCCCNC(=O)COCCOCCOCCNC(=O)C[C@H](Cc1ccccc1)NC(=O)[C@H](CCCNC(=N)N)NC(=O)[C@H](CS)NC(=O)[C@H](CCCNC(=N)N)NC(=O)C[C@@H]1CCCN1C(=O)[C@@H](NC(=O)[C@H](Cc1c[nH]cn1)NC(=O)[C@@H](NC(=O)CNCC(=O)O)[C@@H](C)O)C(c1ccccc1)c1ccccc1` [PR61] here?
**A.** The value was “Y (also”.

**Q.** What about the “Active @ 20 nmoles/mouse IP” value [5] of the same compound?
**A.** The value was “Y (also”.
